Structures are written as SMILES.

Sequence of Trypanothione reductase (P28593 whole entry): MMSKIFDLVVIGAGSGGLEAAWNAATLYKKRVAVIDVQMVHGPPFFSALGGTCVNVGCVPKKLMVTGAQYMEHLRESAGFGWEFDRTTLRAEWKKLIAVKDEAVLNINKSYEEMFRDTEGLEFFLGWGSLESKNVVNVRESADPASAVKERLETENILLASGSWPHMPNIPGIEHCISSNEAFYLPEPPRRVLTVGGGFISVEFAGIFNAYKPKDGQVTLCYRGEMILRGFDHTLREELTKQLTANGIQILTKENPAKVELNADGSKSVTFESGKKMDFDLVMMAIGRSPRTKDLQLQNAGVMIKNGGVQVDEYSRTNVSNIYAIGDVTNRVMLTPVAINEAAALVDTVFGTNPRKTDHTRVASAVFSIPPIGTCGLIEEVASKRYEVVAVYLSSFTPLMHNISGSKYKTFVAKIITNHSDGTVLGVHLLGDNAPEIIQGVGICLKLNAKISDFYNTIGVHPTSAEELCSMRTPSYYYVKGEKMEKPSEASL

Tested on in one series: not listed separately
Kind of series: (§1) Michaelis constant was determined.
As for `CC1=CC(=O)c2ccccc2C1=O` [MENADIONE], the Michaelis-Menten constant (Km) is 882 µM.

Tested on in another series: not listed separately
In words: Catalytic rate constant was determined. In kind it is ADME.
As to `CN1CCN(CCC(=O)Nc2cc(Br)ccc2Sc2cccc(NC(=O)CCCCCC(=O)OCC3=C(Br)C(=O)c4ccccc4C3=O)c2)CC1`, the “k cat/Km” value worked out at 8400 M⁻¹ s⁻¹. On the same count and under the same terms, the same measure for `CC1=CC(=O)c2ccccc2C1=O` [MENADIONE]: 50000 M⁻¹ s⁻¹.

The next series addresses Trypanothione reductase (Trypanosoma cruzi, UniProt P28593). In words: Inhibition of trypanothione reductase from Trypanosoma cruzi, in the presence 57 uM of trypanothione T(SH)2.
`CN1CCN(CCC(=O)Nc2cc(Br)ccc2Sc2cccc(NC(=O)CCCC(=O)NCCc3ccccc3)c2)CC1`: half-maximal inhibition (IC50) required 20 µM. As for `CN1CCN(CCC(=O)Nc2cc(Br)ccc2Sc2cccc(NC(=O)CCCCCC(=O)Nc3cccc(Sc4ccccc4N)c3)c2)CC1`, the IC50 stood at 16 µM. This IC50 and that of the compound before are within 1.5-fold of each other. Compound `CN(C)Cc1ccc(Nc2ccc(NC(=O)CCCCCC(=O)Nc3cccc(Sc4ccc(Br)cc4NC(=O)CCN4CCN(C)CC4)c3)c3c2C(=O)c2ccccc2C3=O)cc1` came in with an IC50 of 3.3 µM. As for `CCN(CC)C(=O)CCCC(=O)Nc1cccc(Sc2ccc(Br)cc2NC(=O)CCN2CCN(C)CC2)c1`, the IC50 is > 60 µM. On the same count and under the same terms, the same measure for `CN1CCN(CCC(=O)Nc2cc(Br)ccc2Sc2cccc(NC(=O)CCCCCC(=O)OCC3=C(Br)C(=O)c4ccccc4C3=O)c2)CC1`: 41 µM; for `CN1CCN(CCC(=O)Nc2cc(Br)ccc2Sc2cccc(NC(=O)CCCCCC(=O)Nc3ccccc3)c2)CC1`: 14 µM; for `CN1CCN(CCC(=O)Nc2cc(Br)ccc2Sc2cccc(NC(=O)CCCCCC(=O)Nc3ccc(N)c4c3C(=O)c3ccccc3C4=O)c2)CC1`: > 60 µM. On the same count and under the same terms, for `CN1CCN(CCC(=O)Nc2cc(Br)ccc2Sc2cccc(NC(=O)CCCC(=O)NCC3CCCO3)c2)CC1` (centres undefined) the value was > 60 µM; for `CN1CCN(CCC(=O)Nc2cc(Br)ccc2Sc2cccc(NC(=O)CCCC(=O)NCC3CCCCC3)c2)CC1`, 47 µM.

`CN1CCN(CCC(=O)Nc2cc(Br)ccc2Sc2cccc(NC(=O)CCCC(=O)NC(c3ccccc3)c3ccccc3)c2)CC1` registered an IC50 of 28 µM. `CN1CCN(CCC(=O)Nc2cc(Br)ccc2Sc2cccc(NC(=O)CCCC(=O)NCc3ccc4c(c3)OCO4)c2)CC1` yielded an IC50 of 33 µM. This IC50 and that of the compound before are within 1.5-fold of each other.

Turning to `CN1CCN(CCC(=O)Nc2cc(Br)ccc2Sc2cccc(NC(=O)CCCC(=O)Nc3cccc(Sc4ccc(Br)cc4NC(=O)CCN4CCN(C)CC4)c3)c2)CC1`, the 50% inhibitory concentration (IC50) was found to be 0.55 µM. Same read-out and setting: for `CN1CCN(CCC(=O)Nc2cc(Br)ccc2Sc2cccc(NC(=O)CCCC(=O)NCC34C[C@H]5C[C@@H](C3)C[C@@H](C4)C5)c2)CC1` the value was > 60 µM; for `CN1CCN(CCC(=O)Nc2cc(Br)ccc2Sc2cccc(NC(=O)CCCC(=O)NCc3ccccc3)c2)CC1`, 35 µM; for `CN1CCN(CCC(=O)Nc2ccccc2Sc2cccc(NC(=O)CCCCCC(=O)Nc3cccc(Sc4ccccc4N)c3)c2)CC1`, 1.8 µM.

On to `CN1CCN(CCC(=O)Nc2cc(Br)ccc2Sc2cccc(NC(=O)CCCCCC(=O)Nc3cccc(Sc4ccccc4[N+](=O)[O-])c3)c2)CC1`, for which the 50% inhibitory concentration (IC50) is > 60 µM. Still for that read-out and setting: the same measure for `CCCCCCCNC(=O)CCCC(=O)Nc1cccc(Sc2ccc(Br)cc2NC(=O)CCN2CCN(C)CC2)c1`: 23 µM; for `CN1CCN(CCC(=O)Nc2cc(Br)ccc2Sc2cccc(NC(=O)CCCC(=O)NCc3ccc4ccccc4c3)c2)CC1`: 25 µM. On the same count and under the same terms, the same measure for `CN1CCN(CCC(=O)Nc2cc(Br)ccc2Sc2cccc(NC(=O)CCCC(=O)NCc3ccccn3)c2)CC1`: > 60 µM.

In the case of `CCCCCCCCCCCCCCCCNC(=O)CCCC(=O)Nc1cccc(Sc2ccc(Br)cc2NC(=O)CCN2CCN(C)CC2)c1`, the IC50 is > 60 µM.

Tested on in a further series: not listed separately
The description is as §1. The class given is ADME.
Turning to `CN1CCN(CCC(=O)Nc2cc(Br)ccc2Sc2cccc(NC(=O)CCCCCC(=O)OCC3=C(Br)C(=O)c4ccccc4C3=O)c2)CC1`, the Km is 160 µM.

A word on the Km: it is the substrate concentration at which the rate is half of its maximum. As usually defined, the IC50 is the concentration needed to halve the response being measured. A low value points to greater potency in that assay.

For the origin of these results see ChEMBL document CHEMBL1131361, “Structure-activity relationships in 2-aminodiphenylsulfides against trypanothione reductase from Trypanosoma cruzi” (Bioorg Med Chem Lett, 1998).
